# From article PMC3583093 (Evidence-based Complementary and Alternative Medicine : eCAM, 2013)
# “And” between values parts separate entries of the source, which are not always exact repeats. Identical values can stand only once. “Also recorded” adds a separate entry of the source. Like-named read-outs stand apart in the source and are kept apart here.
# Legend:
# human TYR [1] = molecular target: T1, human TYR (Homo sapiens, UniProt P14679); assay: In vitro TYR activity assay with lysates of HEK293-TYR cells; assay type: biochemical; details: for IC50: lysates of HEK293-TYR cells, read-out: IC50 against human TYR activity (converted)
# T1 construct: expressed in transfected cells
# T1 sequence (P14679 19-529): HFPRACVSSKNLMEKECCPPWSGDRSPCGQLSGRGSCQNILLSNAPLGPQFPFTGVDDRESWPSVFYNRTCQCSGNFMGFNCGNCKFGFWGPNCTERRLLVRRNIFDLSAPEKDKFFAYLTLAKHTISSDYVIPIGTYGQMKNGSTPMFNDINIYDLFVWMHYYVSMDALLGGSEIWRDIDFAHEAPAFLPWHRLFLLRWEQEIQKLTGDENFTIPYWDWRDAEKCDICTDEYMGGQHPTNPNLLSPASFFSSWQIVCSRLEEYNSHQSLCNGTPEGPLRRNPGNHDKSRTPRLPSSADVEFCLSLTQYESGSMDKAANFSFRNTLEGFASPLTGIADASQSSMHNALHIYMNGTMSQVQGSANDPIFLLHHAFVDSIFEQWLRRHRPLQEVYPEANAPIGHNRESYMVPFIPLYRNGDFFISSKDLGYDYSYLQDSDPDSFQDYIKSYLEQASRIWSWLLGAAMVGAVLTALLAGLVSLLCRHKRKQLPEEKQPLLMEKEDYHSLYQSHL
# murine TYR [2] = molecular target: T2, murine TYR (Mus musculus, UniProt P11344); assay: In vitro TYR activity assay with lysates of murine B16/F10 cells; assay type: biochemical
# T2 sequence (P11344 19-533): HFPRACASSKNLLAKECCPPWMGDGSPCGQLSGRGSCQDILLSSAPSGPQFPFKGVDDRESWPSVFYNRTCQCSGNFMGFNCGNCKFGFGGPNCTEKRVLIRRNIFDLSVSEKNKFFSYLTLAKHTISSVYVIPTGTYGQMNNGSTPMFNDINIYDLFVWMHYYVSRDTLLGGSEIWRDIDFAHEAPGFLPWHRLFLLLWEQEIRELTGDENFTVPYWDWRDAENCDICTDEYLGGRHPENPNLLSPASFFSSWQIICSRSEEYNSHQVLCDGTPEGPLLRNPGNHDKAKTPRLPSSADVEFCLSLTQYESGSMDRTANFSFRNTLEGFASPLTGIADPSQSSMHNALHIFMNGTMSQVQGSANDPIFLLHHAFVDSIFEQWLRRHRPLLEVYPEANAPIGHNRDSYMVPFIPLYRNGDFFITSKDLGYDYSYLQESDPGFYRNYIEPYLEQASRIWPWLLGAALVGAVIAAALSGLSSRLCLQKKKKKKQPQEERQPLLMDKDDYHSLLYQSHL
# mushroom TYR = assay: In vitro mushroom TYR activity assay; assay type: biochemical; details: compared with human and murine TYRs
# Description: In vitro TYR assays were run for human, murine, and mushroom TYRs. The lysates of HEK293-TYR cells were used as a human TYR preparation in most experiments. In some experiments, the lysates of murine B16/F10 cells (Figure 5), HEK293 cells, and HEMs (Figure 6) were used for comparative purposes. Mushroom TYR was purchased from Sigma-Aldrich. The reaction mixture (200 μL) containing either cell lysates (40 μg protein) or mushroom TYR (20 U) and 0.5 mM L-tyrosine, 1 μM DOPA in 100 mM sodium phosphate buffer (pH 6.8) was placed on a 96-well microplate and incubated at 37°C. The formation of DOPA chrome was monitored by measuring absorbance at 490 nm with a BioRad Model 680 microplate reader (Bio-Rad Laboratories, Inc., Hercules, CA, USA). Assays were also run in the absence of TYR enzyme to correct for potential nonenzymatic reactions. Samples and reference inhibitors were included in reaction mixtures at different concentrations.
# human TYR [3] = molecular target: T1, human TYR; assay: In vitro TYR activity assay with lysates of HEMs; assay type: biochemical; details: read-out: IC50 against human TYR activity (converted)
# Description: Human epidermal melanocytes (HEMs), derived from moderately pigmented neonatal foreskins, were obtained from Cascade Biologics (Portland, OR, USA). Cells were grown in Medium 254 supplemented with human melanocyte growth supplement (Cascade Biologics) and antibiotics. HEK293 cells and murine melanoma B16/F10 cells (CRL-6475) were obtained from the American Type Culture Collection (Manassas, VA, USA). HEK 293 cells were transformed into HEK293-TYR cells stably expressing human TYR, as previously described. HEK293 cells, HEK293-TYR cells, and murine melanoma B16/F10 cells were cultured in growth medium (Dulbecco's minimum Eagle's medium (DMEM) containing 10% fetal bovine serum and antibiotics (100 U mL^−1 penicillin, 0.1 mg mL^−1 streptomycin, and 0.25 µg mL^−1 amphotericin B)). Cells were cultured at 37°C in a humidified atmosphere containing 5% CO2 and 95% air. Cells were lysed in ice-cold lysis buffer (10 mM Tris-Cl, pH 7.4, 120 mM NaCl, 25 mM KCl, 2.0 mM EGTA, 1.0 mM EDTA, and 0.5% Triton X-100 and protease inhibitor cocktail) and centrifuged at 13,000 ×g for 15 min at 4°C to obtain clear supernatants which were used as cell lysates.
# In vitro TYR assays were run for human, murine, and mushroom TYRs. […] The formation of DOPA chrome was monitored by measuring absorbance at 490 nm with a BioRad Model 680 microplate reader (Bio-Rad Laboratories, Inc., Hercules, CA, USA). […]
# [4] = system: human epidermal melanocytes (HEMs); assay: Melanin synthesis in HEMs stimulated by L-tyrosine; assay type: cell-based; details: 1.0 mM L-tyrosine, repeated treatment for 6 days
# Description: (§1) Melanogenesis in HEMs was determined as previously described. Cells were pretreated with test material for 60 min, and then melanogenesis was stimulated by adding L-tyrosine (1.0 mM). Media were replaced every other day, and cells were cultured for 6 days. Intracellular melanin was extracted using 0.1 M NaOH at 60°C for 60 min, quantified by measuring absorbance at 490 nm, and normalized for protein content using the Bio-Rad DC assay. Cell viabilities were determined using 3-[4,5-dimethylthiazol-2-yl]-2,5-diphenyltetrazolium bromide.
# [5] = system: human epidermal melanocytes (HEMs); assay: Cell viability of HEMs (MTT); assay type: cell-based; details: repeated treatment for 6 days
# Description: as §1
# murine TYR [6] = molecular target: T2, murine TYR; set-up: method as in Kim et al. [29]; details: at 100 µM or 22.8 µg mL^−1; ref Kim et al. [29]; cited from earlier work
# murine TYR [7] = molecular target: T2, murine TYR; set-up: method as in Yanagihara et al. [30]; details: ref Yanagihara et al. [30]; read-out: IC50 against murine TYR (converted); cited from earlier work
# [8] = read-out: IC50 against murine TYR activity (converted)
SMILES,"inhibition of human TYR activity (human TYR [1]; at 10~30 µg mL^−1, lysates of HEK293-TYR cells and HEMs)",IC50 (human TYR [1]),"IC50 (murine TYR [2]; dose-response curve at low concentration range, read-out: IC50 against murine TYR)",IC50 (murine TYR [2]; [8]),effect on mushroom TYR activity (mushroom TYR),IC50 (human TYR [3]),effect on melanin synthesis in HEMs [4],effect on melanin synthesis in HEMs ([4]; listed as Resveratrol),concentration causing cytotoxicity in HEMs [5],inhibition of murine TYR (murine TYR [6]),IC50 (murine TYR [7]),cytotoxic effect in HEMs ([5]; at 100 µM)
Oc1ccc(/C=C/c2cc(O)cc(O)c2)cc1 [resveratrol],80~90%,1.71 µM and 1.7 µM,4.3 µM,4.38 µM,much smaller effect on mushroom TYR activity; also recorded: very low,5.3 µM and 5.26 µM,dose dependently attenuated; also recorded: reduce melanin synthesis in HEMs at subtoxic concentrations,inhibited melanin synthesis by human epidermal melanocytes at subtoxic concentrations,above 10 µM,32.7%,10.1 µM,–
"O=C(O)/C=C/c1ccc(O)cc1 [p-coumaric acid, reference compound]",–,4.02 µM,–,12.2 µM,–,–,dose dependently attenuated,–,–,–,–,only a little cytotoxic effect
